How the values were obtained:
[1] = system: ApoE−/− mouse model of arterial vulnerable plaque; test: In vivo therapeutic effect of atorvastatin delivery systems on arterial vulnerable plaques (Experimental Example 4, carotid MRI); set-up: species or system mice; conditions: once every other day, 5 treatments, control progressed by 34.87%
Protocol: (§1) Except for the control group of vulnerable plaque model, the treatment group was treated once every other day for a total of 5 treatments. For animals in each group, carotid MRI scans were performed before and after treatment to detect plaque and lumen area, and the percentage of plaque progression was calculated. Percentage of plaque progression=(plaque area after treatment−plaque area before treatment)/lumen area.

[2] = system: ApoE−/− mouse model of arterial vulnerable plaque; test: In vivo radioisotopic tracing of vulnerable plaque (Experimental Example 8); set-up: species or system mice; conditions: tail vein, tracer 2 mSv/kg, imaging 2 hours after administration
Protocol: (§2) • (1) A normal saline solution of free rosuvastatin was prepared, and the liposome nano delivery systems loaded with radioisotopic tracer and therapeutic agent was prepared by the method described in the above Example 11. • (2) Establishment of ApoE−/− mouse model of arterial vulnerable plaque according to Experimental Example 4. • (3) Trace of vulnerable plaque in experimental animals:
The experimental animals were randomly divided into the following groups, 6 mice in each group: • Free F-FDG group: the dosage of F-FDG was 2 mSv/kg body weight; • LP1-(F-FDG)-OPN group: the dosage of F-FDG was 2 mSv/kg body weight; • LP1-(99mTc)-OPN group: the dosage of 99mTc was 2 mSv/kg body weight; • LP1-(I-131)-OPN group: the dosage of 1-131 was 2 mSv/kg body weight.
Animals in each experimental group were injected with the corresponding tracer through the tail vein, and radioisotopic imaging was performed before administration and 2 hours after administration to observe the identification of atherosclerotic vulnerable plaque in each group.

[3] = system: ApoE−/− mouse model of arterial vulnerable plaque; test: In vivo therapeutic effect of rosuvastatin delivery systems on arterial vulnerable plaques (Experimental Example 3, carotid MRI); set-up: species or system mice; conditions: once every other day, 5 treatments, control progressed by 36.23%
Protocol: • (1) A normal saline solution of free rosuvastatin was prepared, and the liposome nanocarrier delivery systems loaded with therapeutic agent were prepared by the method described in the above Example 1-3. • (2) Establishment of ApoE−/− mouse model of arterial vulnerable plaque:
SPF-grade ApoE−/− mice (42 mice, 5-6 weeks old, weight 20±1 g) were taken as experimental animals. The mice were fed with an adaptive high-fat diet (fat 10% (w/w), cholesterol 2% (w/w), sodium cholate 0.5% (w/w), and the rest being normal feed for mice) for 4 weeks, and then anaesthetized via intraperitoneal injection of 1% sodium pentobarbital (prepared by adding […] of sodium pentobarbital to 100 ml of normal saline) at a dose of 40 mg/kg. Then, the mice were fixed on the surgical plate in the supine position, disinfected around the neck with 75% (v/v) alcohol, the neck skin was cut longitudinally, and the anterior cervical gland was bluntly separated, and the beating left common carotid artery can be observed on the left side of the trachea. […]
as §1, with “Percentage of plaque progression=(plaque area after treatment−plaque area before treatment)/lumen area.” left out

[4] = system: ApoE−/− mouse model of arterial vulnerable plaque; test: In vivo therapeutic effect of LP2-(AuNP/R)-OPN on arterial vulnerable plaques (Experimental Example 5, carotid MRI); set-up: species or system mice; conditions: once every other day, 5 treatments, control progressed by 31.23%
Protocol: as §2, with “CT” for “radioisotopic”, “7.” for “11.”
as §1

[5] = oral, clinical practice; cited from earlier work
[6] = biological target: T1, CD44 on the surface of endothelial cells at arterial vulnerable plaques (Mus musculus, UniProt P15379); test: Binding force integration of amino fluorescein labelled ligand/antibody, flow cytometry MFI, endothelial cells; set-up: species or system mice; conditions: normal cells set to 1; labelled ligand/antibody 10 mg/ml, 30 minutes, 37° C.
T1 construct: from tissue; host or cells: endothelial cells from arterial vulnerable plaques of model mice
T1 sequence (P15379 23-778): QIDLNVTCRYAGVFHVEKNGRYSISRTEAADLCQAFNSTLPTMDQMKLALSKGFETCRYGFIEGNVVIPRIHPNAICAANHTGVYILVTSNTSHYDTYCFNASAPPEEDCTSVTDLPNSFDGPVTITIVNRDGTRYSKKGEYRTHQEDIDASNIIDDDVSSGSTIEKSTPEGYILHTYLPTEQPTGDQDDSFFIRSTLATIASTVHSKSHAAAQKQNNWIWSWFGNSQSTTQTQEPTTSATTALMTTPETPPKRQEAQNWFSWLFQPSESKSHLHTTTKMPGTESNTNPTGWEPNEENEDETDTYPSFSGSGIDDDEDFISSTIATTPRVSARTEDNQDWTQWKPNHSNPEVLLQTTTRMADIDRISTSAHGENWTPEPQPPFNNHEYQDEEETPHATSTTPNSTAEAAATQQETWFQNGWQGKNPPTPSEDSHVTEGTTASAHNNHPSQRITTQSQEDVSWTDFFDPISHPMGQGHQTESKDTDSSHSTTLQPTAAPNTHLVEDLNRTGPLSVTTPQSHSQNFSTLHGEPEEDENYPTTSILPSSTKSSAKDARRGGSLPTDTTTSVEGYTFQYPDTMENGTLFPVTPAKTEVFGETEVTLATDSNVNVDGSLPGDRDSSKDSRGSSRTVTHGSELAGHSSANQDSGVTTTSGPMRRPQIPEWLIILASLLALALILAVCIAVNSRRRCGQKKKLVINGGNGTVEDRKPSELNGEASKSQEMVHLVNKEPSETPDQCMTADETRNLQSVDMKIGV
Protocol: Endothelial cells at normal arterial vessel walls and endothelial cells at arterial vulnerable plaques of model mice were taken, and the ligand/antibody labeled with amino fluorescein at a concentration of 10 mg/ml was added, the sample was cultured in Dulberic modified Eagle's medium (DMEM) (containing calf serum with a volume fraction of 10%, 100 U/ml penicillin, 100 U/ml streptomycin) at 37° C., in 5% CO2 incubator. After 30 minutes, the mean fluorescence intensity (MFI) was determined by flow cytometry (CytoFLEX, Beckman Coulter, U.S.A.), and the binding force integration of FL-ligand/antibody on the surface of both cells was calculated (the binding force of CD44 of endothelial cells of normal arterial vessel walls to ligand/antibody is set to 1).

[7] = biological target: T2, CD44 on the surface of macrophages inside arterial vulnerable plaques (Mus musculus, UniProt P15379); test: Binding force integration of amino fluorescein labelled ligand/antibody, flow cytometry MFI, macrophages; set-up: species or system mice; conditions: macrophages outside the plaque set to 1; labelled ligand/antibody 10 mg/ml, 30 minutes, 37° C.
T2 construct: from tissue; host or cells: macrophages from inside arterial vulnerable plaques of model mice
T2 sequence (P15379 23-778): T1 sequence (P15379 23-778)
Protocol: Intraperitoneal macrophages and macrophages inside arterial vulnerable plaques of model mice were taken, and the ligand/antibody labeled with amino fluorescein at a concentration of 10 mg/ml was added, the sample was cultured in DMEM (containing calf serum with a volume fraction of 10%, 100 U/ml penicillin, 100 U/ml streptomycin) at 37° C., in 5% CO2 incubator.

[8] = intragastric, 10 mg rosuvastatin per kg

| Molecule | binding force integration of CD44 on the surface of endothelial cells at vulnerable plaques, relative to endothelial cells of normal arterial vessel walls [6] | binding force integration of CD44 on the surface of macrophages at vulnerable plaques, relative to macrophages outside the plaque [7] | further results |
| --- | --- | --- | --- |
| CC(C)c1c(C(=O)Nc2ccccc2)c(-c2ccccc2)c(-c2ccc(F)cc2)n1CC[C@@H](O)C[C@@H](O)CC(=O)O [atorvastatin] |  |  | percentage of plaque progression ([1]; intragastric, 20 mg atorvastatin per kg): 33.21%; percentage of plaque progression ([1]; intravenous, 1.2 mg atorvastatin per kg): 32.98% |
| OC[C@H]1OC(O)[C@H]([18F])[C@@H](O)[C@@H]1O (stereo partly drawn) [free F-FDG, fluorine 18 (18F)-labeled fludeoxyglucose] |  |  | in vivo tracing effect on arterial vulnerable plaques (radioisotopic imaging) [2]: doesn't show any tracing effect |
| CC(C)c1nc(N(C)S(C)(=O)=O)nc(-c2ccc(F)cc2)c1/C=C/[C@@H](O)C[C@@H](O)CC(=O)O [rosuvastatin] |  |  | percentage of plaque progression [3, 8]: 33.9%; percentage of plaque progression ([3]; intravenous, 0.66 mg rosuvastatin per kg): 32.46%; percentage of plaque progression [4, 8]: 30.9%; percentage of plaque progression ([4]; intravenous, 0.67 mg rosuvastatin per kg): 25.34%; bioavailability when administered orally [5]: about 20% |
| collagen | 21 times | 38 times |  |
| hyaluronic acid [HA] | approximately 24 times | approximately 40 times |  |

Continued, in another order:

| binding force integration of CD44 on the surface of endothelial cells at vulnerable plaques, relative to endothelial cells of normal arterial vessel walls [6] | binding force integration of CD44 on the surface of macrophages at vulnerable plaques, relative to macrophages outside the plaque [7] | Molecule | further results |
| --- | --- | --- | --- |
| 18 times | 35 times | fibronectin |  |
| 16 times | 37 times | laminin |  |
| 17 times | 33 times | osteopontin: natural ligand for CD44 |  |

— patent US12642875B2, “Liposomal nanocarrier delivery system for targeting active CD44 molecule, preparation method therefor, and uses thereof” (Beijing Inno Medicine Co., Ltd., priority 2018, dated 2026)
